Data published in patent US20150209343A1, “TOPICAL DERMAL COMPOSITIONS” (Allergan, Inc., priority 2014, published 2015).
≈ marks a conversion by molar mass, not a printed value. Read-outs that look alike come from different tables or passages of the source.

Legend:
[1] = cited from earlier work
[2] = Physicochemical properties of tazarotene
[3] = tested on: retinoic acid receptor (RAR) family: RARα, RARβ, and RARγ; details: cited from earlier work

| crystalline drug by DSC or PXRD analysis ([2]; at 1% or at 4% in Compritol) | solubility ([2]; isopropyl myristate, oil or lipid, read-out: Solubility in isopropyl myristate) | solubility ([2]; water, read-out: Solubility in water) | Structure (SMILES) | pKa [1] | binding to RARα, RARβ and RARγ [3] | selectivity among RARs [3] |
| --- | --- | --- | --- | --- | --- | --- |
| no crystalline drug was detected | 7400 µg/mL (≈ 21.1 mM) | < 1 µg/mL | CCOC(=O)c1ccc(C#Cc2ccc3c(c2)C(C)(C)CCS3)nc1 [Tazarotene, Ethyl 6-[(4,4-dimethylthiochroman-6-yl)ethynyl]nicotinate] | 1.5^(1) | – | – |
| – | – | – | CC1(C)CCSc2ccc(C#Cc3ccc(C(=O)O)cn3)cc21 [Tazarotenic acid] | – | binds to all three members | relative selectivity for RARβ, and RARγ |
